Laboratory results taken from paper PMC9117128, “Phage anti-CBASS and anti-Pycsar nucleases subvert bacterial immunity” (Nature, 2022).

How the values were obtained:
[1] = target: T1, YhfI (Bacillus subtilis, UniProt O07607); experiment: HPLC cleavage assay; type: biochemical; conditions: Mg2+, Mn2+, pH 7.5, 37 °C
T1 construct: recombinant, homodimer

[2] = target: T2, PycTIR (Burkholderia cepacia, UniProt A0A0J5WTU0); experiment: fluorescent NADase activation assay; type: biochemical; conditions: 500 µM ε-NAD, pH 7.5, room temperature
T2 sequence (A0A0J5WTU0 1-303): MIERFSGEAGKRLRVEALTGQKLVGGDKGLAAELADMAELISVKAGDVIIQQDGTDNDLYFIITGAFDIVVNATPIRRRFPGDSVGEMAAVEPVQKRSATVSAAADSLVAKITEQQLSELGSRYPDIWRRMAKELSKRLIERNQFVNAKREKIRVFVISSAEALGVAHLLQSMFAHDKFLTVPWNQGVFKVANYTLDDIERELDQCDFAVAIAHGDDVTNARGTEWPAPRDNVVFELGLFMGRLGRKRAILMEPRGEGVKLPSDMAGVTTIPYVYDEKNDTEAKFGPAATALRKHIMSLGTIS

[3] = target: the molecule itself; experiment: crystal structure; hanging-drop crystals grown at 18 °C from purified protein (10 mg/ml, 20 mM HEPES-KOH pH 7.5, 80 mM KCl, 1 mM TCEP); homodimer seen in the crystal structures

T1 sequence (O07607 whole entry): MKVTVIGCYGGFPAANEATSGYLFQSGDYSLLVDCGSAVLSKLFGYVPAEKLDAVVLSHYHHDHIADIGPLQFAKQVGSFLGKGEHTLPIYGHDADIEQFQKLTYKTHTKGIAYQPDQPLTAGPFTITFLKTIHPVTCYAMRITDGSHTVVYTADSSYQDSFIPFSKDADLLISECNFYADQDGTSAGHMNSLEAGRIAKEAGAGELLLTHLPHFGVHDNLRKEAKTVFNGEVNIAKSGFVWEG

Molecule	stoichiometry N [3]	other results
Nc1nc2c(ncn2[C@@H]2O[C@@H]3COP(=O)(O)O[C@H]3[C@H]2O)c(=O)[nH]1 [cGMP]		HPLC cleavage assay [1]: exhibited a strong preference for cAMP/cGMP over cCMP/cUMP cleavage
O=c1ccn([C@@H]2O[C@@H]3COP(=O)(O)O[C@H]3[C@H]2O)c(=O)[nH]1 [cUMP]		fluorescent NADase activation assay ([2]; activator): cUMP-dependent activation of the Pycsar NADase effector PycTIR
NC(=O)c1ccc[n+]([C@@H]2O[C@H](COP(=O)(O)OP(=O)(O)OC[C@H]3O[C@@H](n4cnc5c4ncn4ccnc54)[C@H](O)[C@@H]3O)[C@@H](O)[C@H]2O)c1 [ε-NAD]		fluorescent NADase activation assay ([2]; cUMP as activator): Release of fluorescent substrate from an NAD^+ analogue incubated with the Pycsar effector PycTIR
Apyc1 from the phage Bsp38 (enzyme, Anti-Pycsar protein Apyc1 (MBL-fold class II phosphodiesterase) of phage Bsp38; The SUMO2 tag was cleaved with SENP2; also called Bsp38 Apyc1; source: E. coli BL21(DE3) RIL, purified (Ni-NTA, Superdex 75 SEC); not shown: 6×His-SUMO2 or 6×His-MBP-SUMO2, N-terminal, cleaved) MLHTTQIRMVGTGSAFSKKFYNNSALVTFTNGYNLLIDCGHSVPKGLHDADIPLESIDGILITHTHADHIGGLEEVALYNKFVLGGRKIDLLVPNTLVESLWENSLKGGLRYSDTYDDLSLSDYFTVRSLKTFTSGAARTQLEENIAIKLYPTFHVSHMASYAVGLEDRGEDKVFYSSDTIFDEYLIDYALTYSWVFHDCQFFTGGVHASLDELLNYIPEEDQDRVFLMHYGDNMEDFFTKTGRMRFALQGRTYIL	2	
Paenibacillus xerothermodurans Apyc1 (enzyme, Apyc1 homologue (MBL-fold class II phosphodiesterase) of Paenibacillus xerothermodurans; also called P. xerothermodurans Apyc1; Paenibacillus Apyc1; source: E. coli BL21(DE3) RIL, purified (Ni-NTA, Superdex 75 SEC); not shown: 6×His-SUMO2 or 6×His-MBP-SUMO2, N-terminal, cleaved) SLQIQMIGTGSAFAKKFYNNNALVKCNGFQLLIDCGVTAPRALHELGVPITGIDGILITHIHADHVGGIEEFAFRLKYKYGMTIKLFVPAALVNPLWDHSLRGGLENKAEGLEQLADYFDVVALEEAVVHEIHPGLTVELVRSQHIAGKASYSLLLNNLLFYSSDARFNYAQLVELSTSGRCKYILHDCQLAEPAAVHATLNELLTLPEAVQEMIMLMHYDDEMEQFIGKSGKMSFMQQHKTYSFTEAT	2	
Paenibacillus J14 Apyc1 (enzyme, selenomethionine-labelled, Apyc1 homologue (MBL-fold class II phosphodiesterase) of Paenibacillus J14, GenBank WP_028539944.1; Crystallised with a hydrolysis-resistant phosphorothioate analogue of cAMP; also called P. J14 Apyc1; Paenibacillus Apyc1; source: E. coli BL21(DE3) RIL, selenomethionine-labelled, purified (Ni-NTA, Superdex 75 SEC); not shown: 6×His-SUMO2 or 6×His-MBP-SUMO2, N-terminal, cleaved) ALRLQMLGTGGAFAKKYFNNNALLYAGDFTLLIDCGITAPLALHTIGKSVEEIDAVLITHIHGDHVGGLEELAFRRKFGSGRKPILYIAENLVEPLWENTLKGGLSQDGVIHSLNDVFDVRLLKESEPAQLAPELKVELIRTPHIPGKPSYSLYINDEIFYSADMTFEPELLMRLVRERGCRRIFHEVQLTGKGEVHTTLQELLSLPTEIQSQILLKHYSDDMESFRGATGNMDFLRQHEVYTL	2	
